Laboratory results: US6472227B1, “Barbiturate assay, tracers, immunogens, antibodies and kit” (Abbott Laboratories, priority 1986, dated 2002)

Assays:
[1] = Tracer stability: polarization after storage in buffer or boric acid (Table 1); format: physicochemical; parameters: Polarization (Buffer): unit not given beside the values
Text: It was unexpectedly discovered that the presence of a carbon-carbon double bond between the fluorescein moiety and the barbiturate ring portions of the novel tracers of the present invention advantageously orients the tracer for optimal interaction with the antibody.

[2] = tested on: antibodies raised against an immunogen having the structure shown in FIG. 29; assay: Fluorescence polarization immunoassay cross-reactivity in drug-free normal human urine, tracer of FIG. 30; format: binding, sheep; settings: for amount of the test compound found in the resulting human urine: 200 ng/mL added to drug-free urine, secobarbital standard; for % CR / Conc. Found: tracer FIG. 30
Procedure: (§1) The antibodies of the present invention are prepared by eliciting a response in sheep to the immunogens described supra. The immunogen is administered to animals or to in vitro cultures of immunocompetent cells by a series of innoculations, in a manner well known to those skilled in the art.
(§2) The tracer formulation presently preferred is 150 nanomolar tracer in: 0.1 molar phosphate buffer at pH 6.2; 5% sodium 5-sulfosalicylate; 0.1% sodium azide; and 0.01% bovine gamma-globulin. The antiserum formulation comprises sheep serum diluted with: 0.1 molar tris buffer at pH 7.5; 0.1% sodium azide; 0.1% bovine gamma-globulin; and 2% ethylene glycol (volume/volume). The dilution buffer comprises: 0.1 molar sodium phosphate at pH 7.5; 0.1% sodium azide; and 0.01% bovine gamma-globulin. The pretreatment solution comprises: 0.01% bovine gamma-globulin; 0.1 molar tris buffer at pH 7.5; 0.1% sodium azide; and 10 mg/mL riboflavin binding protein.
(§3) A minimum of fifty microliters of urine is required. The calibrators, controls, or unknown samples are pipetted directly into the sample well of the TDx® or ADx® sample cartridge. […] The assay procedure from this point is fully automated.
(§4) If a manual assay is being performed, then the sample is mixed with the pretreatment solution in dilution buffer and a background reading is taken. The tracer and antibody are then mixed into the test solution. After incubation, a fluorescence polarization reading is taken.
(§5) The net fluorescence polarization value of each calibrator, control or sample is determined and is printed on the output tape of an instrument such as the Abbott TDx® Analyzer. […] The concentration of each control or sample is read off the stored calibration curve and printed on the output tape.
Cross-reactivity was tested by the method of the present invention for the commonly-used barbiturates. In each case, compounds were assayed on the Abbott Laboratories+ TDx® Clinical Analyzer or the ADx® Drugs of Abuse System after adding a known quantity (200 ng/mL) of the barbiturate test compound to drug-free normal human urine.
(§6) The five columns in Tables 4(a) and 4(b) indicate the same information as is described above for Table 3(a).

[3] = tested on: antibodies raised against an immunogen having the structure shown in FIG. 29; assay: Fluorescence polarization immunoassay cross-reactivity, tracer of FIG. 31; format: binding, sheep; settings: tracer FIG. 31
Procedure: as §1

[4] = tested on: antibodies raised against an immunogen having the structure shown in FIG. 28; assay: Fluorescence polarization immunoassay cross-reactivity in drug-free normal human urine, tracer of FIG. 5; format: binding, sheep; settings: for amount of the test compound found in the resulting human urine: 200 ng/mL added to drug-free urine, secobarbital standard
Procedure: as §1, §2, §3, §4, §5
Cross-reactivity was tested by the method of the present invention for the commonly-used barbiturates. […]
The five columns indicate the following information:
In other words, when 200 ng of secobarbital were added to drug-free normal human urine, approximately 200 ng of secobarbital were detected in the resulting urine sample. Thus, the closer the factor is to 1.0, the more accurate the assay is with respect to the particular test compound analyzed.
The percent cross-reactivity value presented in column five was obtained by the following mathematical formula: [formula]
as §6

CCCC(C)C1(CC(=O)NCc2c(O)ccc3c2Oc2cc(O)ccc2C32OC(=O)c3ccccc32)C(=O)NC(=O)NC1=O (centres unmarked)
Polarization (Boric Acid) ([1]; 2-8 °C, Day 0): 269.39
Polarization (Buffer) ([1]; 2-8 °C, Day 0): 247.79
Polarization (Boric Acid) ([1]; 2-8 °C, Day 1): 271.12
Polarization (Buffer) ([1]; 2-8 °C, Day 1): 238.09
Polarization (Boric Acid) ([1]; 2-8 °C, Day 7): 228.62
Polarization (Buffer) ([1]; 2-8 °C, Day 7): 168.21
Polarization (Boric Acid) ([1]; 45 °C, Day 1): 62.68
Polarization (Buffer) ([1]; 45 °C, Day 1): 48.70
Polarization (Boric Acid) ([1]; 45 °C, Day 7): > 68.68
Polarization (Buffer) ([1]; 45 °C, Day 7): > 48.70

CCC1(c2ccccc2)C(=O)NC(=O)NC1=O [Phenobarbital]
factor which overestimates or underestimates the compound assayed for ([2]; 200 ng/mL added): 0.70
percent cross reactivity ([2]; 200 ng/mL added): 70%
amount of the test compound found in the resulting human urine [2]: 140 ng/mL
% CR ([2]; Conc. Added 1200 ng/mL): 62%
Conc. Found ([2]; Conc. Added 1200 ng/mL): 740 ng/mL
% CR ([3]; Conc. Added 1200 ng/mL): 107%
Conc. Found ([3]; Conc. Added 1200 ng/mL): 1280 ng/mL
factor which overestimates or underestimates the compound assayed for ([4]; 200 ng/mL added): 1.05
percent cross reactivity ([4]; 200 ng/mL added): 105%
amount of the test compound found in the resulting human urine [4]: 210 ng/mL

O=C1NC(=O)C(c2ccccc2)(c2ccccc2)N1 [Phenytoin]
% CR ([2]; Conc. Added 100 (ng/mL)): 0.04%
Conc. Found ([2]; Conc. Added 100 (ng/mL)): 40 ng/mL
% CR ([3]; Conc. Added 100 (ng/mL)): 0.09%
Conc. Found ([3]; Conc. Added 100 (ng/mL)): 90 ng/mL
amount of the test compound found ([4]; 1 μg/mL added): ND (None detected: Concentration less than the sensitivity of the assay (60 ng/mL))
amount of the test compound found ([4]; 10 μg/mL added): 320 ng/mL
factor ([4]; 10 μg/mL added): 0.032
percent cross reactivity ([4]; 10 μg/mL added): 3.20%
amount of the test compound found ([4]; 100 μg/mL added): 1020 ng/mL
factor ([4]; 100 μg/mL added): 0.0102
percent cross reactivity ([4]; 100 μg/mL added): 1.02%

C=CCC1(C(C)CC)C(=O)NC(=O)NC1=O (centres unmarked) [Talbutal]
factor which overestimates or underestimates the compound assayed for ([2]; 200 ng/mL added): 2.65
percent cross reactivity ([2]; 200 ng/mL added): 265%
amount of the test compound found in the resulting human urine [2]: 531 ng/mL
% CR ([2]; Conc. Added 1200 ng/mL): >167%
% CR ([3]; Conc. Added 1200 ng/mL): >167%
factor which overestimates or underestimates the compound assayed for ([4]; 200 ng/mL added): 0.90
percent cross reactivity ([4]; 200 ng/mL added): 90%
amount of the test compound found in the resulting human urine [4]: 180 ng/mL

CCCC(C)C1(C/C=C/C(=O)NCc2c(O)ccc3c2Oc2cc(O)ccc2C32OC(=O)c3ccccc32)C(=O)NC(=O)NC1=O (centres unmarked) [drawing 9]
Polarization (Buffer) ([1]; 2-8 °C, Day 0): 239.63
Polarization (Buffer) ([1]; 2-8 °C, Day 1): 235.18
Polarization (Buffer) ([1]; 2-8 °C, Day 7): 235.08
Polarization (Buffer) ([1]; 45 °C, Day 1): 237.93
Polarization (Buffer) ([1]; 45 °C, Day 7): 239.72

O=C1NC(=O)C(c2ccccc2)(c2ccc(O)cc2)N1 (centres unmarked) [p-Hydroxy phenytoin]
amount of the test compound found ([2]; 10 μg/mL added): ND (None detected: Concentration less than the sensitivity of the assay (60 ng/mL))
amount of the test compound found ([2]; 100 μg/mL added): 101 ng/mL
factor ([2]; 100 μg/mL added): 0.00010
percent cross reactivity ([2]; 100 μg/mL added): 0.10%
amount of the test compound found ([2]; 500 μg/mL added): 218 ng/mL
factor ([2]; 500 μg/mL added): 0.00004
percent cross reactivity ([2]; 500 μg/mL added): 0.04%
% CR ([2]; Conc. Added 500 (ng/mL)): 0.001%
Conc. Found ([2]; Conc. Added 500 (ng/mL)): 200 ng/mL
% CR ([3]; Conc. Added 500 (ng/mL)): 0.058%
Conc. Found ([3]; Conc. Added 500 (ng/mL)): 290 ng/mL
amount of the test compound found ([4]; 1 μg/mL added): ND (None detected: Concentration less than the sensitivity of the assay (60 ng/mL))
amount of the test compound found ([4]; 10 μg/mL added): 340 ng/mL
factor ([4]; 10 μg/mL added): 0.034
percent cross reactivity ([4]; 10 μg/mL added): 3.40%
amount of the test compound found ([4]; 100 μg/mL added): 1200 ng/mL
factor ([4]; 100 μg/mL added): 0.012
percent cross reactivity ([4]; 100 μg/mL added): 1.20%

Primidone
amount of the test compound found ([2]; 10 μg/mL added): ND (None detected: Concentration less than the sensitivity of the assay (60 ng/mL))
amount of the test compound found ([2]; 100 μg/mL added): 195 ng/mL
factor ([2]; 100 μg/mL added): 0.00019
percent cross reactivity ([2]; 100 μg/mL added): 0.19%
% CR ([2]; Conc. Added 100 (ng/mL)): 0.18%
Conc. Found ([2]; Conc. Added 100 (ng/mL)): 180 ng/mL
% CR ([3]; Conc. Added 100 (ng/mL)): 0.24%
Conc. Found ([3]; Conc. Added 100 (ng/mL)): 240 ng/mL
amount of the test compound found ([4]; 1 μg/mL added): ND (None detected: Concentration less than the sensitivity of the assay (60 ng/mL))
amount of the test compound found ([4]; 10 μg/mL added): 90 ng/mL
factor ([4]; 10 μg/mL added): 0.009
percent cross reactivity ([4]; 10 μg/mL added): 0.90%
amount of the test compound found ([4]; 100 μg/mL added): 320 ng/mL
factor ([4]; 100 μg/mL added): 0.0032
percent cross reactivity ([4]; 100 μg/mL added): 0.32%
